Assay results from US12252488B2 (Nimbus Saturn, Inc., priority 2021, dated 2025).

Each molecule was assayed against T1, HPK1 (Homo sapiens, UniProt Q92918) (assay: HPK1 biochemical enzyme assay (microfluidic mobility shift assay)). Conditions: 1000 uM (1 mM) ATP; Caliper mobility shift; 1.5 nM HPK1; 30 min preincubation; read-out: HPK1 1000UMATP caliper IC50.
T1 construct: purchased Invitrogen
Procedure, shortened: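 IC50 values, grouped into activity categories, come from 10-point titrations (top final 3 μM) preincubated 30 min with 1.5 nM enzyme and substrate at pH 7.4. ATP (1 mM), substrate (1 μM) and MgCl2 (5 mM) then added; after 60 min at RT, product separated by microfluidic mobility shift.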

T1 sequence (Q92918 whole entry): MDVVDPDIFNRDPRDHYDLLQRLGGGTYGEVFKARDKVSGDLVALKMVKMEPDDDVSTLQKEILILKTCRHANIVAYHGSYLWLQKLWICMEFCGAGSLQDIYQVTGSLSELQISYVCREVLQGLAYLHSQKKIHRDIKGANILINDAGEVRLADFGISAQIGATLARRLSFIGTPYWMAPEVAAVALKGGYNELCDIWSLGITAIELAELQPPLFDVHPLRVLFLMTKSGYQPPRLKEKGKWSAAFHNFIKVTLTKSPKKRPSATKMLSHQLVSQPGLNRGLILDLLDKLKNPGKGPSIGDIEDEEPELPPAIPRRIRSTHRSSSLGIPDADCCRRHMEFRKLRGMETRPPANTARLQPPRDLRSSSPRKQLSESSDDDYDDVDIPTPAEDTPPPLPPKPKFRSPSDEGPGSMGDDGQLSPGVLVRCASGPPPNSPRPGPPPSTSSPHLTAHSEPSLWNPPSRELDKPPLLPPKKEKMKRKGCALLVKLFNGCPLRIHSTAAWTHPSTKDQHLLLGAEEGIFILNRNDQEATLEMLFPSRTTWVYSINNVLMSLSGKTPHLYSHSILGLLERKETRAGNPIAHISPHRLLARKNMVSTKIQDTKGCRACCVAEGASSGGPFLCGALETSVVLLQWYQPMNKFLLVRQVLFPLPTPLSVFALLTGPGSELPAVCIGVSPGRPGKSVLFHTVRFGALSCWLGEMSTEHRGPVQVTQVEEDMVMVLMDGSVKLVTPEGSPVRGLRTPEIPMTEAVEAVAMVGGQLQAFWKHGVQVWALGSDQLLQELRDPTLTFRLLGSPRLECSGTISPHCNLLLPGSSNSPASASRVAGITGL

`CN(C(=O)C1(C)COC1)c1ccc(-c2cc(Nc3ccc(N4CCC(O)CC4)cn3)c3c(=O)[nH]ccc3n2)c(F)c1` [I-210, N-[3-fluoro-4-[4-[[5-(4-hydroxy-1-piperidyl)-2-pyridyl]amino]-5-oxo-6H-1,6-naphthyridin-2-yl]phenyl]-N,3-dimethyl-oxetane-3-carboxamide] and `CN(C(=O)C1(C)CC1)c1ccc(-c2cc(Nc3ccc(N4CCC(O)CC4)cn3)c3c(=O)[nH]ccc3n2)c(F)c1` [I-214, N-[3-fluoro-4-[4-[[5-(4-hydroxy-1-piperidyl)-2-pyridyl]amino]-5-oxo-6H-1,6-naphthyridin-2-yl]phenyl]-N,1-dimethyl-cyclopropane-carboxamide] cannot be ordered by IC50: at most 100 nM for the first, 100 to 1000 nM for the second.

Going from `CC1(C(=O)Nc2ccc(-c3cc(Nc4ccc(N5CCC(O)CC5)cn4)c4c(=O)[nH]ccc4n3)c(F)c2)CCC1` [I-211, N-[3-fluoro-4-[4-[[5-(4-hydroxy-1-piperidyl)-2-pyridyl]amino]-5-oxo-6H-1,6-naphthyridin-2-yl]phenyl]-1-methyl-cyclobutane-carboxamide] to `CCC1(C(=O)Nc2ccc(-c3cc(Nc4ccc(N5CCC(O)CC5)cn4)c4c(=O)[nH]ccc4n3)c(F)c2)CC1` [I-223, 1-ethyl-N-[3-fluoro-4-[4-[[5-(4-hydroxy-1-piperidyl)-2-pyridyl]amino]-5-oxo-6H-1,6-naphthyridin-2-yl]phenyl] cyclopropane-carboxamide], the IC50 falls from over 1000 nM to at most 100 nM. The second is the more potent here.

`O=C(Nc1ccc(-c2cc(Nc3ccc(C4CC4)cn3)c3c(=O)[nH]ccc3n2)c(F)c1)C1CCCCC1` [I-212, N-[4-[4-[(5-cyclopropyl-2-pyridyl)amino]-5-oxo-6H-1,6-naphthyridin-2-yl]-3-fluoro-phenyl] cyclohexane-carboxamide] and `CC1(C(=O)Nc2ccc(-c3cc(Nc4ccc(N5CCNCC5)cn4)c4c(=O)[nH]ccc4n3)c(F)c2)CCC1` [I-219, N-[3-fluoro-4-[5-oxo-4-[(5-piperazin-1-yl-2-pyridyl)amino]-6H-1,6-naphthyridin-2-yl]phenyl]-1-methyl-cyclobutane-carboxamide] cannot be ordered by IC50: 100 to 1000 nM for the first, at most 100 nM for the second.

`CN1C(=O)Cc2cc(-c3cc(Nc4ccc(N5CCC(O)CC5)cn4)c4c(=O)[nH]ccc4n3)cnc21` [I-213, 4-[[5-(4-hydroxy-1-piperidyl)-2-pyridyl]amino]-2-(1-methyl-2-oxo-3H-pyrrolo[2,3-b]pyridin-5-yl)-6H-1,6-naphthyridin-5-one] and `O=C1Cc2cc(-c3cc(Nc4ccc(N5CCC(O)CC5)cn4)c4c(=O)[nH]ccc4n3)cnc2N1` [I-226, 4-[[5-(4-hydroxy-1-piperidyl)-2-pyridyl]amino]-2-(2-oxo-1,3-dihydro-pyrrolo[2,3-b]pyridin-5-yl)-6H-1,6-naphthyridin-5-one] cannot be ordered by IC50: 100 to 1000 nM for the first, at most 100 nM for the second.

`COc1cc(-c2cc(Nc3ccc(N4CCC(O)CC4)cn3)c3c(=O)[nH]ccc3n2)c(F)cc1CN(C)C` [I-215, 2-(4-((Dimethylamino)methyl)-2-fluoro-5-methoxyphenyl)-4-((5-(4-hydroxypiperidin-1-yl)pyridin-2-yl)amino)-1,6-naphthyridin-5(6H)-one] and `COc1cc(-c2cc(Nc3ccc(N4CCC(O)CC4)cn3)c3c(=O)[nH]ccc3n2)c(F)cc1C(=O)N(C)C` [I-230, 5-fluoro-4-[4-[[5-(4-hydroxy-1-piperidyl)-2-pyridyl]amino]-5-oxo-6H-1,6-naphthyridin-2-yl]-2-methoxy-N,N-dimethyl-benzamide] cannot be ordered by IC50: 100 to 1000 nM for the first, at most 100 nM for the second.

First: COc1cc(-c2cc(Nc3ccc(N4CCC(O)CC4)cn3)c3c(=O)[nH]ccc3n2)c(F)cc1CN1CCCCC1 [I-216, 2-[2-fluoro-5-methoxy-4-(1-piperidyl-methyl)phenyl]-4-[[5-(4-hydroxy-1-piperidyl)-2-pyridyl]amino]-6H-1,6-naphthyridin-5-one]
Second: O=C(c1cc(F)c(-c2cc(Nc3ccc(N4CCC(O)CC4)cn3)c3c(=O)[nH]ccc3n2)cc1F)N1CCCCC1 [I-231, 2-[2,5-difluoro-4-(piperidine-1-carbonyl)phenyl]-4-[[5-(4-hydroxy-1-piperidyl)-2-pyridyl]amino]-6H-1,6-naphthyridin-5-one]
The IC50 of the first is higher: over 1000 nM for the first, 100 to 1000 nM for the second.

`CNCc1ccc(F)c(-c2cc(Nc3ccc(N4CCC(O)CC4)cn3)c3c(=O)[nH]ccc3n2)c1` [I-217, 2-[2-fluoro-5-(methyl-amino-methyl)phenyl]-4-[[5-(4-hydroxy-1-piperidyl)-2-pyridyl]amino]-6H-1,6-naphthyridin-5-one] and `CNCc1ccc(-c2cc(Nc3ccc(N4CCC(O)CC4)cn3)c3c(=O)[nH]ccc3n2)c(F)c1` [I-218, 2-[2-fluoro-4-(methyl-amino-methyl)phenyl]-4-[[5-(4-hydroxy-1-piperidyl)-2-pyridyl]amino]-6H-naphthyridin-5-one] cannot be ordered by IC50: 100 to 1000 nM for the first, at most 100 nM for the second.

`O=c1[nH]ccc2nc(-c3c(F)ccc4c3CCNC4)cc(Nc3ccc(N4CCC(O)CC4)cn3)c12` [I-220, 2-(6-fluoro-1,2,3,4-tetrahydro-isoquinolin-5-yl)-4-[[5-(4-hydroxy-1-piperidyl)-2-pyridyl]amino]-6H-1,6-naphthyridin-5-one] and `CNC1CCCc2c1ccc(F)c2-c1cc(Nc2ccc(N3CCC(O)CC3)cn2)c2c(=O)[nH]ccc2n1` (stereo not shown) [I-224, 2-[6-fluoro-1-(methyl-amino)tetralin-5-yl]-4-[[5-(4-hydroxy-1-piperidyl)-2-pyridyl]amino]-6H-1,6-naphthyridin-5-one] cannot be ordered by IC50: at most 100 nM for the first, 100 to 1000 nM for the second.

`CNC1(c2ccc(F)c(-c3cc(Nc4ccc(N5CCC(O)CC5)cn4)c4c(=O)[nH]ccc4n3)c2)CC1` [I-221, 2-[2-fluoro-5-[1-(methyl-amino)cyclopropyl]phenyl]-4-[[5-(4-hydroxy-1-piperidyl)-2-pyridyl]amino]-6H-1,6-naphthyridin-5-one] and `O=C(Nc1ccc(-c2cc(Nc3ccc(N4CCC(O)CC4)cn3)c3c(=O)[nH]ccc3n2)c(F)c1)C1(C(F)F)CC1` [I-222] cannot be ordered by IC50: 100 to 1000 nM for the first, at most 100 nM for the second.

First: COc1cc(-c2cc(Nc3cc(C4CCOC4)[nH]n3)c3c(=O)[nH]ccc3n2)c(F)cc1C(=O)N1CCCCC1 (stereo not shown) [I-225, 2-[2-fluoro-5-methoxy-4-(piperidine-1-carbonyl)phenyl]-4-[(5-THF-3-yl-1H-pyrazol-3-yl)amino]-6H-1,6-naphthyridin-5-one]
Second: COc1cc(-c2cc(Nc3ccc(N4C[C@H]5COC[C@H]5C4)cn3)c3c(=O)[nH]ccc3n2)c(F)cc1C(=O)N1CCCCC1 [I-229, 4-[[5-[(3aR,6aS)-1,3,3a,4,6,6a-hexahydro-furo[3,4-c]pyrrol-5-yl]-2-pyridyl]amino]-2-[2-fluoro-5-methoxy-4-(piperidine-1-carbonyl)phenyl]-6H-1,6-naphthyridin-5-one]
The IC50 of the first is higher: over 1000 nM for the first, 100 to 1000 nM for the second. The second is the more potent here.

`CN1CCN(c2ccc(Nc3cc(-c4cnc5c(c4)CC(=O)N5)nc4cc[nH]c(=O)c34)nc2)CC1` [I-227, 4-[[5-(4-methyl-piperazin-1-yl)-2-pyridyl]amino]-2-(2-oxo-1,3-dihydro-pyrrolo[2,3-b]pyridin-5-yl)-6H-1,6-naphthyridin-5-one] and `CN(C)C1CCc2cc(-c3cc(Nc4ccc(N5CCC(O)CC5)cn4)c4c(=O)[nH]ccc4n3)c(F)cc21` (stereo not shown) [I-238, 2-[1-(dimethyl-amino)-6-fluoro-indan-5-yl]-4-[[5-(4-hydroxy-1-piperidyl)-2-pyridyl]amino]-6H-1,6-naphthyridin-5-one] cannot be ordered by IC50: at most 100 nM for the first, 100 to 1000 nM for the second.

`CCn1ccc(Nc2cc(-c3cc(OC)c(C(=O)N4CCCCC4)cc3F)nc3cc[nH]c(=O)c23)nc1=O` [I-228, 4-((1-ethyl-2-oxo-1,2-dihydropyrimidin-4-yl)amino)-2-(2-fluoro-5-methoxy-4-(piperidine-1-carbonyl)phenyl)-1,6-naphthyridin-5(6H)-one] and `COc1cc(-c2cc(Nc3cccc(N4CCNCC4)n3)c3c(=O)[nH]ccc3n2)c(F)cc1C(=O)N1CCCCC1` [I-234, 2-[2-fluoro-5-methoxy-4-(piperidine-1-carbonyl)phenyl]-4-[(6-piperazin-1-yl-2-pyridyl)amino]-6H-1,6-naphthyridin-5-one] cannot be ordered by IC50: at most 100 nM for the first, at most 100 nM for the second.

`COc1cc(-c2cc(Nc3ccc(N4CCCCC4)cn3)c3c(=O)[nH]ccc3n2)c(F)cc1C(=O)N1CCCCC1` [I-232, 2-[2-fluoro-5-methoxy-4-(piperidine-1-carbonyl)phenyl]-4-[[5-(1-piperidyl)-2-pyridyl]amino]-6H-1,6-naphthyridin-5-one] and `CCC1(C(=O)Nc2ccc(-c3cc(Nc4ccc(N5CCNCC5)cn4)c4c(=O)[nH]ccc4n3)c(F)c2)CCC1` [I-240, 1-ethyl-N-[3-fluoro-4-[5-oxo-4-[(5-piperazin-1-yl-2-pyridyl)amino]-6H-1,6-naphthyridin-2-yl]phenyl] cyclobutane carboxamide] cannot be ordered by IC50: at most 100 nM for the first, 100 to 1000 nM for the second.

`O=C(C1CC1)N1CCC2(CCN(c3cc(Nc4ccc(N5CCC(O)CC5)cn4)c4c(=O)[nH]ccc4n3)CC2)C1` [I-233, 2-[2-(cyclopropanecarbonyl)-2,8-diazaspiro[4.5]decan-8-yl]-4-[[5-(4-hydroxy-1-piperidyl)-2-pyridyl]amino]-6H-1,6-naphthyridin-5-one] and `O=c1[nH]ccc2nc(N3CCC4(CCNC4)CC3)cc(Nc3ccc(N4CCC(O)CC4)cn3)c12` [I-235, 2-(2,8-diazaspiro[4.5]decan-8-yl)-4-[[5-(4-hydroxy-1-piperidyl)-2-pyridyl]amino]-6H-1,6-naphthyridin-5-one] cannot be ordered by IC50: at most 100 nM for the first, at most 100 nM for the second.

`O=c1[nH]ccc2nc(N3CCC4(CCCN4)CC3)cc(Nc3ccc(N4CCC(O)CC4)cn3)c12` [I-236, 2-(1,8-diazaspiro [4.5]decan-8-yl)-4-[[5-(4-hydroxy-1-piperidyl)-2-pyridyl]amino]-6H-1,6-naphthyridin-5-one] and `O=c1[nH]ccc2nc(N3CCC4(CCCNC4)CC3)cc(Nc3ccc(N4CCC(O)CC4)cn3)c12` [I-239, 2-(2,9-diazaspiro [5.5]undecan-9-yl)-4-[[5-(4-hydroxy-1-piperidyl)-2-pyridyl]amino]-6H-1,6-naphthyridin-5-one] fall in the same range of IC50: 100 to 1000 nM for the first, 100 to 1000 nM for the second.

`CN(C)C1CCc2c1ccc(-c1cc(Nc3ccc(N4CCC(O)CC4)cn3)c3c(=O)[nH]ccc3n1)c2F` (stereo not shown) [I-237, 2-[1-(dimethyl-amino)-4-fluoro-indan-5-yl]-4-[[5-(4-hydroxy-1-piperidyl)-2-pyridyl]amino]-6H-1,6-naphthyridin-5-one] gave an IC50 of 100 to 1000 nM.
